Experimental data from patent US20120157471A1, “BENZIMIDAZOLE DERIVATIVES” (PFIZER INC., priority 2009, published 2012).

How the values were obtained:
[1] = molecular target: T1, human Smo (amino acids 181-787) (Homo sapiens, UniProt Q99835); assay: Smo radioligand competition binding assay (displacement of 3H-PF-03451358 from HEK293 membranes); conditions: for inhibition at 0.05 µM: 0.05 μM test compound, displacement of 3H-PF-03451358, read-out: SMO % inh. @ 0.05 μM; for IC50: radioligand competition binding
T1 construct: expressed in transfected cells; membrane preparation
T1 sequence (Q99835 181-787): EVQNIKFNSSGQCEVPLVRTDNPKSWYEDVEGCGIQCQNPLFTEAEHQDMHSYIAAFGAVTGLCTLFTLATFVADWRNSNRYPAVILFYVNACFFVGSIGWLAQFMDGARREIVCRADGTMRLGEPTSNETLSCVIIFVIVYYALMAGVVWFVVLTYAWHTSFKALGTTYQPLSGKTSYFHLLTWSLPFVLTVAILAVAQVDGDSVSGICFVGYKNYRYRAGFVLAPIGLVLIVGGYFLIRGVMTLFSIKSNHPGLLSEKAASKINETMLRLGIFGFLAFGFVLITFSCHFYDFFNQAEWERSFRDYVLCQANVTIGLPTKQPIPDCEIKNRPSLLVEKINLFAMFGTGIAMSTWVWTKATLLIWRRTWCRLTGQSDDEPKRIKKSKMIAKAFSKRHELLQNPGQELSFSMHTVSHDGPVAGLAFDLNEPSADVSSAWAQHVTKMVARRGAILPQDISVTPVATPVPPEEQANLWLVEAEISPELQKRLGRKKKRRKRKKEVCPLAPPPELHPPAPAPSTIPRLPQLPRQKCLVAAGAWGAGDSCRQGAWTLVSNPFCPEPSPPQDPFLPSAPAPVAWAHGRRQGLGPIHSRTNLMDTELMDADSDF
Description: Membranes were prepared from a stable cell line created in HEK293FlpIn-TetR cells (Invitrogen) using FIp recombinase-mediated insertion of the pSecTag-FRT/V5-His vector containing a cDNA encoding amino acids 181-787 of human Smo fused to the murine lgk leader sequence to produce a cell surface expressed Smo 181-781 protein. Hygromycin-resistant clones were obtained and stained for LacZ expression (no expression indicates a correct knock-in of my fusion cDNA). LacZ-negative cells were analyzed for binding tritiated Smo antagonist PF-03451358. For membrane preparation, the HEK293 cells expressing Smo 181-781 were grown to 90% confluence in nine to fifteen 245 mm×245 mm×22 mm dishes, washed with Dulbecco's PBS (15 ml per dish) and harvested via scraping in 10 ml of DPBS. The cells were collected and centrifuged at 1500 rpm (400×g) for 10 min at 4° C. The cell pellets were re-suspended in 40 ml of cold DPBS and washed by centrifugation at 2300 rpm (950×g max) for 10 minutes at 4° C. The supernatant was aspirated and the cell pellet was snap frozen in a methanol/dry ice bath and stored at −70° C. For membrane preparation, 15 ml of Membrane Preparation Buffer (50 mM Tris-HCl pH 7.5, 250 mM sucrose with Roche complete protease cocktail tablets) is added to the tube containing the cell pellet, then cells are rapidly thawed, and homogenized using an Ultra-Turrax T8 (IKA Labortechnik) set on “6” for 15 seconds for 5-6 times in icy water bath. This homogenate was diluted up to 50 ml using Membrane Preparation Buffer and centrifuged at 35,000 rpm in a Beckman Ti45 rotor (140,000×g) for 35 minutes at 4° C. followed by aspiration of the supernatant and re-suspension of the pellet in 5 ml of Assay Buffer (50 mM Tris-HCl pH 7.5, 100 mM NaCl, 25 mM MgCl2, 1 mM EDTA, and 0.1% protease free bovine serum albumin). The re-suspended pellet is then homogenized in a glass tissue grinder. The re-suspended membranes are aliquoted (0.5 ml aliquots), snap frozen and stored at −70° C. Total protein in the membrane preparation is determined using the Pierce BCA protein assay (Pierce Chemical).
For the binding competition assay, 100 μl of Assay Buffer is added to all the wells of a 96 well GF/B filter plate (Millipore MultiScreen-HTS-FB cat# MSFBN6B50) for 10 minutes to pre-wet the filter prior to evacuation of the buffer (8 inches Hg for 8 seconds). To the pre-wet wells is added: 20 μl of Assay Buffer, 10 μl diluted test agent, 20 μl of ^3H-PF-3451358 (15 nM stock solution), and 50 μl of membrane preparation (40 μg total protein per well). The plates are sealed and mixed at room temperature for 5 min, incubated at room temperature for 2 hours, then washed 5 times with 100 μl/each of wash buffer and vacuum dried for 8 seconds at 8 inch Hg. The plate is then dried for one hour in a 60° C. oven prior to the addition of 45 μl of Microscint 20 (Packard, #6013621) to each well and incubation at RT for 30 minutes to 1 hour. The plate is counted in a TopCount scintillation counter (Perkin Elmer).
Data analysis uses Excel for % Inhibition and Graphpad Prism for IC50 calculation. Total binding (TB, in the absence of inhibitors)=average of ^3H PF-03451358 3 nM+SMO membrane (40 μg/wells (approx 5000-7000 CPM). Non-specific binding (NSB)=average of ^3H PF-03451358 (3 nM)+cold PF-03451358 (30 μM)+SMO membrane (approx 600-1200 CPM). Specific binding (SB)=(total binding−non-specific binding). % Inhibition=[1−(compound Specific binding/control Specific binding)]×100%. IC50 is calculated by fitting the data to the four parameter sigmoidal dose-response curve (variable slope) Y=Bottom+(Top-Bottom)/(1+10̂((LogEC50−X)*HillSlope)). X is the logarithm of the inhibitor concentration. Y is the response; Y starts at Bottom and goes to Top with a sigmoid shape.

[2] = test system: Gli-Luc/MEF cells (Smo); assay: Gli-Luc/MEF assay (Shh-stimulated luciferase reporter under the Gli response element); format: cell-based, mouse; conditions: Mus musculus, MEF, 48 h
Description: The Gli-Luc/MEF cells obtained from Gli-Luc transgenic mice (Pfizer CoE, Genetically Modified Mice) contain a luciferase reporter gene under the control of the Gli response element. Luciferase activity stimulated with Sonic hedgehog ligand was inhibited by Smo inhibitors, and IC50 was subsequently calculated.
Plates were incubated at 37° C. and 5% CO2 overnight. On day two, cells were dosed with test compounds at a final concentration ranging from […] to 50 μM at a 3-time series dilution. Immediately after dosing cells with compounds, recombinant mouse sonic hedgehog (Shh, R&D Systems 464-SH) was added to a final concentration of 2 μg/mL. The cells were incubated with compounds and Shh for 48 hours at 37° C. and 5% CO2. Luciferase assays were conducted on Day 4 using the Bright-Glo Luciferase assay system (Promega E2620) according to Promega's protocol. Briefly, Bright-Glo luciferase reagent was made up and 25 uL were added to each well of the 384-well plate containing media. Plates were kept at room temperature for 5 minutes, and then read on an Envision Luminescence plate reader (Perkin-Elmer). IC50 of the inhibition was calculated by using GraphPad Prism.

Compound | inhibition at 0.05 µM [1] [%] | IC50 [2] [µM] | IC50 [1] [µM]
Cn1cnnc1C1CCN(c2cc(-c3nc4ccccc4n3C)c(Cl)cn2)CC1 [Example A-132, 2-{5-chloro-2-[4-(4-methyl-4H-1,2,4-triazol-3-yl)piperidin-1-yl]pyridin-4-yl}-1-methyl-1H-benzimidazole] | 51 | 0.199 | –
CNC(=O)NC1CN(c2cc(-c3nc4ccccc4n3C)c(Cl)cn2)C1 [Example A-180, 1-{1-[5-chloro-4-(1-methyl-1H-benzimidazol-2-yl)pyridin-2-yl]azetidin-3-yl}-3-methylurea] | 89 | 0.043 | 0.06
Cn1c(-c2cc(N3CCOCC(O)C3)ncc2Cl)nc2ccccc21 (centres unmarked) [Example A-53, 4-[5-chloro-4-(1-methyl-1H-benzimidazol-2-yl)pyridin-2-yl]-1,4-oxazepan-6-yl] | 98 | 0.009 | 0.012
COC(=O)N(C)C1CN(c2cc(-c3nc4ccccc4n3C)c(Cl)cn2)C1 [Example A-150, methyl {1-[5-chloro-4-(1-methyl-1H-benzimidazol-2-yl)pyridin-2-yl]azetidin-3-yl}methylcarbamate] | 87 | 0.023 | 0.056
CC(=O)N1CCN(c2cc(-c3nc4ccccc4n3C)c(Cl)cn2)CC1 [Example A-1, 2-[2-(4-acetylpiperazin-1-yl)-5-chloropyridin-4-yl]-1-methyl-1H-benzimidazole] | 90 | 0.004 | 0.0152
Cn1c(-c2cc(N3CCC(S(N)(=O)=O)CC3)ncc2Cl)nc2ccccc21 [Example A-66, 1-[5-chloro-4-(1-methyl-1H-benzimidazol-2-yl)pyridin-2-yl]piperidine-4-sulfonamide] | 94 | 0.005 | 0.014
Cn1c(-c2cc(N3CCCn4cnc(CO)c4C3)ncc2Cl)nc2ccccc21 [Example A-110, {8-[5-chloro-4-(1-methyl-1H-benzimidazol-2-yl)pyridin-2-yl]-6,7,8,9-tetrahydro-5H-imidazo[1,5-a][1,4]diazepin-1-yl}methanol] | 74 | 0.093 | 0.161
CCNC(=O)NC1CN(c2cc(-c3nc4ccccc4n3C)c(Cl)cn2)C1 [Example A-148, 1-{1-[5-chloro-4-(1-methyl-1H-benzimidazol-2-yl)pyridin-2-yl]azetidin-3-yl}-3-ethylurea] | 95 | 0.009 | 0.021
Cn1c(-c2cc(N3CCOC(c4nc(C5CC5)no4)C3)ncc2Cl)nc2ccccc21 (centres unmarked) [Example A-76, 2-{5-chloro-2-[2-(3-cyclopropyl-1,2,4-oxadiazol-5-yl)morpholin-4-yl]pyridin-4-yl}-1-methyl-1H-benzimidazole] | 92 | 0.018 | 0.035
COCC(=O)N1CCN(c2cc(-c3nc4ccccc4n3C)c(Cl)cn2)CC1 [Example A-201, 2-{5-chloro-2-[4-(methoxyacetyl)piperazin-1-yl]pyridin-4-yl}-1-methyl-1H-benzimidazole] | 96 | 0.0088 | 0.014
CC1CC2(CCN1c1cc(-c3nc4ccccc4n3C)c(Cl)cn1)CNC(=O)C2 (stereo in doubt) [Example A-48, (5R,7S)-8-[5-chloro-4-(1-methyl-1H-benzimidazol-2-yl)pyridin-2-yl]-7-methyl-2,8-diazaspiro[4.5]decan-3-one] | 100 | 0.007 | 0.007
Cn1c(-c2ccnc(N3CCCNCC3)c2)nc2ccccc21 [Example A-13, 2-[2-(1,4-diazepan-1-yl)pyridin-4-yl]-1-methyl-1H-benzimidazole] | 66 | 0.089 | 0.423
Cn1c(-c2cc(N3CCC(N4CCCC4=O)CC3)ncc2Cl)nc2ccccc21 [Example A-81, 1-{1-[5-chloro-4-(1-methyl-1H-benzimidazol-2-yl)pyridin-2-yl]piperidin-4-yl}pyrrolidin-2-one] | 91 | 0.01 | 0.024
